This note sets out measurements from patent publication US8188108B2, “Pharmaceutical composition” (priority 2002, dated 2012).

Molecules are shown by their SMILES. Where two headings read alike, the source gives them in different places.

The nature of one series: clinical. To be noted: both, human, in vivo; for AUC(0-t) / AUC(0-inf) / Cmax: po, Least-Squares Means (LSM); for AUC(0-inf): AUCinf.
[1] abbreviates: plasma, fed vs fasting, Lortab + Colace co-administered, ln-transformed.
Setting [2] is: plasma, fed vs fasting, Lortab administered alone, ln-transformed.
[3] abbreviates: plasma, with docusate vs without, fasting, ln-transformed.
The mark [4] stands for this setting: plasma, with docusate vs without, fed, ln-transformed.
Setting [5] is: Form A, plasma, Treatment A: one 10 mg/500 mg Lortab tablet + one 50 mg Colace capsule, single oral dose, fasting.
Where [6] appears, read: Form A, plasma, Treatment A: Lortab 10 mg/500 mg + Colace 50 mg, single oral dose, fasting.
Where [7] appears, read: Form B, plasma, Treatment B: Lortab 10 mg/500 mg alone, single oral dose, fasting.
The mark [8] stands for this setting: Form C, plasma, Treatment C: Lortab 10 mg/500 mg + Colace 50 mg, single oral dose, fed.
[9] abbreviates: Form D, plasma, Treatment D: Lortab 10 mg/500 mg alone, single oral dose, fed.

One may read the AUC(0-t) as the area under the concentration-time curve up to a stated or last time point. As usually defined, the AUC(0-inf) is total exposure, with the tail of the curve extrapolated. As a reminder, the Cmax is the peak of the concentration-time curve. For `CC(=O)Nc1ccc(O)cc1` [Acetaminophen, acetaminophen], under “fed vs fasting”, the “effect of food on Cmax (rate of exposure)” value (“effect of food on Cmax” for short) is given as “lowering the Cmax”. Besides, where the note is “plasma, Treatment D: one 10 mg/500 mg Lortab tablet alone, single oral dose, fed (30 min after start of standard breakfast)”, the “AUC 0-t, Least-Squares Means (LSM), Form D” value is 19545.72 ng·h/mL. For the same compound, under setting [1], the “AUC 0-t, Ratio of LSM (C/A)” value is given as 93.5%; the “AUCinf, Ratio of LSM (C/A)” value is given as 94.8%; the “Cmax, Ratio of LSM (C/A)” value was 72.3%. For the same compound, under setting [2], the “AUC 0-t, Ratio of LSM (D/B)” value is reported as 94.3%; the “AUCinf, Ratio of LSM (D/B)” value was 97.3%; the “Cmax, Ratio of LSM (D/B)” value worked out at 67.9%. Under setting [3], the “AUC 0-t, Ratio of LSM (A/B)” value is listed as 101.4%; the “AUCinf, Ratio of LSM (A/B)” value stood at 102.9%; the “Cmax, Ratio of LSM (A/B)” value is recorded as 92.0%. Moreover, under setting [4], the “AUC 0-t, Ratio of LSM (C/D)” value is listed as 100.5%; the “AUCinf, Ratio of LSM (C/D)” value was found to be 100.3%; the “Cmax, Ratio of LSM (C/D)” value is listed as 97.9%. Further, the “effect of docusate on the pharmacokinetics” value (under fed and fasted conditions) is “no significant effect”. Besides, in “clinical” (setting [5]), the AUC(0-t) turned out to be 21000 ng·h/mL. In addition, the AUC(0-t) in the series “clinical” (Form B, plasma, Treatment B: one 10 mg/500 mg Lortab tablet alone, single oral dose, fasting) came out at 20700 ng·h/mL. Also, in “clinical” (setting [6]), the AUC(0-inf) came to 22700 ng·h/mL and the maximum concentration (Cmax) came to 5450 ng/mL. In the series “clinical” (setting [7]), this compound returned an AUC(0-inf) of 22000 ng·h/mL and a maximum concentration (Cmax) of 5920 ng/mL. Also, in “clinical” (setting [8]), the AUC(0-inf) came out at 21500 ng·h/mL and the highest concentration (Cmax) turned out to be 3940 ng/mL. In “clinical” (setting [9]), the AUC(0-inf) came to 21400 ng·h/mL and the concentration peaked (Cmax) at 4020 ng/mL.

Turning to `CCCCC(CC)COC(=O)CC(C(=O)OCC(CC)CCCC)S(=O)(=O)O` (stereo not shown) [Docusate, dioctyl sodium sulphosuccinate], the “absorption of docusate (measurable plasma concentrations)” value (50 mg Colace capsule oral, throughout the period of blood sampling) is listed as “absorbed in measurable amounts”. Where the note is “fed vs fasting”, the “effect of food on Cmax” value is “not significantly affected by food”. In addition, under setting [1], the “AUC 0-t, Ratio of LSM (C/A)” value is 124.2%; the “AUCinf, Ratio of LSM (C/A)” value is recorded as 128.8%; the “Cmax, Ratio of LSM (C/A)” value is 104.4%. For the setting “plasma, fed vs fasting, Lortab + Colace co-administered, ln-transformed, listed as docusate”, the “Cmax, Ratio of LSM (C/A)” value came out at 104.5%. Further, in “clinical” (setting [5]), the area under the curve AUC(0-t) is 1170 ng·h/mL. In “clinical” (setting [6]), the AUC(0-inf) turned out to be 1170 ng·h/mL and the Cmax is 608 ng/mL. In the series “clinical” (setting [8]), the total exposure AUC(0-inf) was determined as 1510 ng·h/mL and the Cmax was found to be 635 ng/mL.

Usually Tmax stands for the time from dosing to the highest level. With `COc1ccc2c3c1O[C@H]1C(=O)CC[C@H]4[C@@H](C2)N(C)CC[C@]314` [Hydrocodone, hydrocodone], for the setting “both, human, in vivo”, the “AUC 0-t, Ratio of LSM (A/B)” value was determined as 102.5%; the “AUC 0-t, Ratio of LSM (C/A)” value amounted to 105.0%; the “AUC 0-t, Ratio of LSM (C/D)” value was 97.4%; the “AUC 0-t, Ratio of LSM (D/B)” value was 110.6%. Under “both, human, in vivo”, the “AUCinf, Ratio of LSM (A/B)” value turned out to be 107.2%; the “AUCinf, Ratio of LSM (C/A)” value is given as 105.0%; the “AUCinf, Ratio of LSM (C/D)” value turned out to be 97.4%; the “AUCinf, Ratio of LSM (D/B)” value is on record as 115.6%. Besides, under “both, human, in vivo”, the “Cmax, Ratio of LSM (A/B)” value amounted to 100.2%; the “Cmax, Ratio of LSM (C/A)” value is given as 91.7%; the “Cmax, Ratio of LSM (C/D)” value stood at 97.0%; the “Cmax, Ratio of LSM (D/B)” value is given as 94.6%. Further, under “in vivo”, the “effect of docusate on the pharmacokinetics” value is “no significant effect”, the “effect of food on Cmax” value was “no significant effect” and the “effect of food on extent of exposure (AUC)” value is listed as “no significant effect”. For the same compound, the time to peak (Tmax) in the series “clinical” was about 1 h. In “clinical” (Form A), this compound showed an AUC(0-t) of 135 ng·h/mL, an AUC(0-inf) of 162 ng·h/mL and a Cmax of 24.3 ng/mL. For the same compound, in “clinical” (Form B), the area under the curve AUC(0-t) was found to be 132 ng·h/mL, the AUC(0-inf) came out at 151 ng·h/mL and the maximum concentration (Cmax) stood at 24.2 ng/mL. Further, in “clinical” (Form C), the exposure AUC(0-t) turned out to be 142 ng·h/mL, the area under the curve AUC(0-inf) is 170 ng·h/mL and the Cmax is 22.3 ng/mL. Also, in the series “clinical” (Form D), the AUC(0-t) came out at 146 ng·h/mL, the AUC(0-inf) came to 175 ng·h/mL and the concentration peaked (Cmax) at 22.9 ng/mL.
